Results from patent US11306064B2, “Benzothia(di)azepine compounds and their use as bile acid modulators” (Albireo AB, priority 2018, dated 2022).

Assays:
Assay type in all cases: cell-based
[1] = molecular target: T1, Human LBAT (Homo sapiens, UniProt Q14973); experiment: LBAT (h/m) assay: 3H-taurocholic acid uptake in human LBAT-overexpressing cells; conditions: 0.3 μM 3H-taurocholic acid and 7.5 μM cold taurocholic acid, 20 minutes, read-out: hLBAT IC50
T1 construct: expressed in transfected cells; kept under Geneticin selection
T1 sequence (Q14973 1-349): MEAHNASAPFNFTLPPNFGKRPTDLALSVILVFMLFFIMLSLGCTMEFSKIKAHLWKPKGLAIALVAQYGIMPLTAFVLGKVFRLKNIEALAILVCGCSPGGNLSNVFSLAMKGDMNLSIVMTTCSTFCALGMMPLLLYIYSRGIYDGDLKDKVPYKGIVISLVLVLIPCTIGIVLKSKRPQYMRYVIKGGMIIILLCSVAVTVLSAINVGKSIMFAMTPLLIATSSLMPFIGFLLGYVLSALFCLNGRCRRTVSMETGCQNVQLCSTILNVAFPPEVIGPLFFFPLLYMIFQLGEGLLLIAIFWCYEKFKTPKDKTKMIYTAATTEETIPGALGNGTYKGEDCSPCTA
Summary of the method: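 LBAT-overexpressing cells, serum-free MEM-alpha, 20 min at 37° C with inhibitor (3-fold, 10-point) plus 0.3 μM 3H-taurocholic acid and cold taurocholic acid (7.5 μM human; 25 μM mouse), 0.2% DMSO. Stopped on ice, washed with 1 mM unlabelled taurocholate; uptake by scintillation counting.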

[2] = system: HepaRG cells; experiment: HepaRG-based assay: 3H-taurocholic acid uptake in differentiated HepaRG cells; conditions: 0.3 μM 3H-taurocholic acid and 7.5 μM cold taurocholic acid, 30 minutes
Summary of the method: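 Differentiated HepaRG cells cultured 7 days post-seeding were exposed for 30 min at 37 °C to 0.3 μM 3H-taurocholic acid plus 7.5 μM cold taurocholic acid with inhibitor (3-fold dilutions, 0.2% DMSO). Uptake was stopped on ice, washed with 1 mM unlabelled taurocholic acid, and counted by scintillation.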

[3] = molecular target: T2, Human ASBT (Homo sapiens, UniProt Q12908); experiment: ASBT (h/m) assay: 3H-taurocholic acid uptake in human ASBT-overexpressing cells; conditions: 0.25 μM 3H-taurocholic acid and 5 μM cold taurocholic acid, 20 minutes, read-out: hASBT IC50
T2 construct: expressed in transfected cells; kept under Puromycin selection
T2 sequence (Q12908 1-348): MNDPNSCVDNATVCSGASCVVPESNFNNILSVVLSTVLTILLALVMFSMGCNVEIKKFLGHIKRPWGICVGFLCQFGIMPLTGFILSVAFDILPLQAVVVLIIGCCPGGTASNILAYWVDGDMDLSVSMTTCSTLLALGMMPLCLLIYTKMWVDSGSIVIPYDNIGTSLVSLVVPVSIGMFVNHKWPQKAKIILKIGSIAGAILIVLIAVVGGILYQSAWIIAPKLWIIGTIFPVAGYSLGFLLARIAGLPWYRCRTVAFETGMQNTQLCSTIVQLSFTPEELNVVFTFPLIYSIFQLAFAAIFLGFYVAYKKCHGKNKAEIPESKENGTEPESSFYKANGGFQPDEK
Summary of the method: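 ASBT-overexpressing cells, seeded 48 h earlier, took up 0.25 µM 3H-taurocholic acid plus 5 µM cold taurocholate for 20 min at 37 °C with inhibitor (10-point 3-fold series, top 10 µM, 0.2% DMSO). Ice stop, washes with cold 1 mM taurocholate in HEPES-HBSS pH 7.4, scintillation counting.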

Structure (SMILES) | IC50 [1] | IC50 ([2]; Homo sapiens, HepaRG) | IC50 [3] | IC50 [2]
CCCCC1(CCCC)CN(c2ccccc2)c2cc(SCC)c(O/C=C(\F)C(=O)O)cc2S(=O)(=O)C1 [Example 70, (Z)-3-((3,3-dibutyl-7-(ethylthio)-1,1-dioxido-5-phenyl-2,3,4,5-tetrahydro-1,5-benzothiazepin-8-yl)oxy)-2-fluoroacrylic Acid] | 81 nM | 716 nM | 125 nM | 
CCCCC1(CCCC)CN(c2ccccc2)c2cc(C3CC3)c(O/C=C/C(=O)O)cc2S(=O)(=O)C1 [Example 7, (E)-3-((3,3-dibutyl-7-cyclopropyl-1,1-dioxido-5-phenyl-2,3,4,5-tetrahydro-1,5-benzothiazepin-8-yl)oxy)acrylic Acid] | 749 nM | 3190 nM | 217 nM | 
CCCCC1(CC)CN(c2ccccc2)c2cc(SC)c(O/C=C/C(=O)O)cc2S(=O)(=O)N1C (racemic) [Example 88, (E)-3-((3-butyl-3-ethyl-2-methyl-7-(methylthio)-1,1-dioxido-5-phenyl-2,3,4,5-tetrahydro-1,2,5-benzothiadiazepin-8-yl)oxy)acrylic Acid] | 70 nM | 1150 nM | 2250 nM | 
CCCCC1(CCCC)CN(c2ccc(NC(=O)OC(C)(C)C)cc2)c2cc(SC)c(O/C=C(\F)C(=O)O)cc2S(=O)(=O)C1 [Example 26, (Z)-3-((5-(4-((tert-butoxycarbonyl)amino)phenyl)-3,3-dibutyl-7-(methylthio)-1,1-dioxido-2,3,4,5-tetrahydro-1,5-benzothiazepin-8-yl)oxy)-2-fluoroacrylic Acid] | 53 nM | 477 nM | 3240 nM | 
CCCC[C@@]1(CC)CN(c2ccccc2)c2cc(Br)c(O/C=C(\F)C(=O)O)cc2S(=O)(=O)C1 (single isomer, unassigned) [Example 65] | 20 nM | 265 nM | 27 nM | 
CCCCC1(CCCC)CN(c2ccc(OC)cc2)c2cc(SC)c(O/C=C/C(=O)O)cc2S(=O)(=O)C1 [Example 19, (E)-3-((3,3-dibutyl-5-(4-methoxyphenyl)-7-(methylthio)-1,1-dioxido-2,3,4,5-tetrahydro-1,5-benzothiazepin-8-yl)oxy)acrylic Acid] | 783 nM | 2890 nM | 128 nM | 
CCCCC1(CCCC)CN(c2ccc(NC(=O)OC)cc2)c2cc(SC)c(O/C=C/C(=O)O)cc2S(=O)(=O)C1 [Example 24, (E)-3-((3,3-dibutyl-5-(4-((methoxycarbonyl)amino)phenyl)-7-(methylthio)-1,1-dioxido-2,3,4,5-tetrahydro-1,5-benzothiazepin-8-yl)oxy)acrylic Acid] | 225 nM | 2280 nM | 4670 nM | 
CCCCC1(CCCC)CN(c2ccccc2)c2cc(Cl)c(O/C=C(\F)C(=O)O)cc2S(=O)(=O)C1 [Example 53, (Z)-3-((3,3-dibutyl-7-chloro-1,1-dioxido-5-phenyl-2,3,4,5-tetrahydro-1,5-benzothiazepin-8-yl)oxy)-2-fluoroacrylic Acid] | 62 nM | 800 nM | 280 nM | 
CCCCC1(CC)CN(c2ccccc2)c2cc(I)c(O/C=C/C(=O)O)cc2S(=O)(=O)C1 (single isomer, unassigned) [Example 58, (E)-3-((3-butyl-3-ethyl-7-iodo-1,1-dioxido-5-phenyl-2,3,4,5-tetrahydro-1,5-benzothiazepin-8-yl)oxy)acrylic acid] | 84 nM |  | 24 nM | 1500 nM
CCCCC1(CCCC)CN(c2ccc(C(F)(F)F)cc2)c2cc(SC)c(O/C=C/C(=O)O)cc2S(=O)(=O)C1 [Example 32, (E)-3-((3,3-dibutyl-7-(methylthio)-1,1-dioxido-5-(4-(trifluoromethyl)phenyl)-2,3,4,5-tetrahydro-1,5-benzothiazepin-8-yl)oxy)acrylic Acid] | 506 nM | 672 nM | 209 nM | 
